Where a SMILES comes first, the peptide text is derived from it. Bridges are numbered along the chain shown (N, C = ends). [ ]: non-standard residue; d: D form. dPhe(4-Cl) = N[C@H](Cc1ccc(Cl)cc1)C(=O)O; d2Nal = N[C@H](Cc1ccc2ccccc2c1)C(=O)O; d3Pal = N[C@H](Cc1cccnc1)C(=O)O; NMeL = CN[C@@H](CC(C)C)C(=O)O; ΔPro = O=C(O)[C@@H]1C=CCN1; Dab = NCC[C@H](N)C(=O)O; Dap = NC[C@H](N)C(=O)O; βAla = NCCC(=O)O

For experiment [1], the species on record is Rattus norvegicus. The experiment can be described thus: Number of rats ovulating over total at a dose of 10 ug/rat (2/20). Type of experiment: functional.
The species entered for experiment [2] is Rattus norvegicus. The experiment can be described thus: Number of rats ovulating over total at a dose of 2.5 ug/rat (2/8). Type of experiment: functional.
Experiment [3] addresses T1, Gonadotropin-releasing hormone receptor (Homo sapiens, UniProt P30968).
T1 sequence (P30968 whole entry): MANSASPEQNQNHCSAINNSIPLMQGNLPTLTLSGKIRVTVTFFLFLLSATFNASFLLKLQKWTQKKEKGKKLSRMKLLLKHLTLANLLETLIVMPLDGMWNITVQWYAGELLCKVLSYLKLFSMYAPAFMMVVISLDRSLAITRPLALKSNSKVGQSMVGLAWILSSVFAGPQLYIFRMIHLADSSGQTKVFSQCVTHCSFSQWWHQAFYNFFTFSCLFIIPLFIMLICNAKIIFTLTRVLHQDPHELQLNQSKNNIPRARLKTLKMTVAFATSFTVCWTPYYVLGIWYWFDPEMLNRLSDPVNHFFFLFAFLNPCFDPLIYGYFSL
The experiment can be described thus: Binding affinity towards Gonadotropin-releasing hormone receptor.

The species named for experiment [4] is Rattus norvegicus. The experiment can be described thus: Number of rats ovulating over total at a dose of 5 ug/rat (2/8). Type of experiment: functional.
For experiment [5], the species on record is Rattus norvegicus. The experiment can be described thus: Number of rats ovulating over total at a dose of 5 ug/rat (3/20). Type of experiment: functional.
The species named for experiment [6] is Rattus norvegicus. The experiment can be described thus: Number of rats ovulating over total at a dose of 1000 ug/rat (5/8). Type of experiment: functional.

In the experiment filed under Rattus norvegicus [1], `CC(=O)N1CC=C[C@H]1C(=O)N[C@H](Cc1ccc(F)cc1)C(=O)N[C@H](Cc1c[nH]c2ccccc12)C(=O)N[C@H]1CC(=O)NC[C@@H](C(N)=O)NC(=O)[C@@H]2CCCN2C(=O)[C@H](CCCN=C(N)N)NC(=O)[C@H](CC(C)C)NC(=O)[C@@H](Cc2ccc3ccccc3c2)NC(=O)[C@H](Cc2ccc(O)cc2)NC1=O` showed a No. of rats of 2.

As to `CC(=O)N[C@H]1CCC(=O)NCC(=O)NCC[C@@H]2NC(=O)[C@H](CC(=O)NC[C@@H](C(N)=O)NC(=O)[C@@H]3CCCN3C(=O)[C@H](CCCN=C(N)N)NC(=O)[C@H](CC(C)C)NC(=O)[C@@H](Cc3ccc4ccccc4c3)NC2=O)NC(=O)[C@@H](Cc2c[nH]c3ccccc23)NC(=O)[C@@H](Cc2ccc(Cl)cc2)NC1=O`, the No. of rats in the experiment filed under Rattus norvegicus [2] amounted to 2.

On to `CC(=O)N[C@H](Cc1ccc2ccccc2c1)C(=O)N[C@H](Cc1ccc(Cl)cc1)C(=O)N[C@H](Cc1cccnc1)C(=O)N[C@H]1CC(=O)NC[C@@H](C(N)=O)NC(=O)[C@@H]2CCCN2C(=O)[C@@H]2CCNC(=O)CNC(=O)CC[C@H](NC1=O)C(=O)N[C@H](CCCN=C(N)N)C(=O)N[C@@H](CC(C)C)C(=O)N2` (Ac-[d2Nal][dPhe(4-Cl)][d3Pal]DE[dR]L[Dab]P[Dap]-NH2; lactam 4-10; linker 5-8 via G) [listing 1 of 2 here], for which, in experiment [3], the Ki was found to be 0.14 nM.

On to `CC(=O)N[C@H](Cc1ccc2ccccc2c1)C(=O)N[C@H](Cc1ccc(Cl)cc1)C(=O)N[C@H](Cc1cccnc1)C(=O)N[C@H]1CC(=O)NC[C@@H](C(N)=O)NC(=O)[C@@H]2CCCN2C(=O)[C@@H]2CCNC(=O)CNC(=O)CC[C@H](NC1=O)C(=O)N[C@H](CCCN=C(N)N)C(=O)N[C@@H](CC(C)C)C(=O)N2` (Ac-[d2Nal][dPhe(4-Cl)][d3Pal]DE[dR]L[Dab]P[Dap]-NH2; lactam 4-10; linker 5-8 via G) [listing 2 of 2 here], for which, in the experiment filed under Rattus norvegicus [4], the No. of rats is given as 2.

For `CC(=O)N[C@H](Cc1ccc2ccccc2c1)C(=O)N[C@H](Cc1ccc(Cl)cc1)C(=O)N[C@H](Cc1c[nH]c2ccccc12)C(=O)N[C@H]1CC(=O)NC[C@@H](C(N)=O)NC(=O)[C@@H]2CCCN2C(=O)[C@@H]2CCCCNC(=O)CC[C@H](NC1=O)C(=O)N[C@H](CCCN=C(N)N)C(=O)N[C@@H](CC(C)C)C(=O)N2` (Ac-[d2Nal][dPhe(4-Cl)][dW]DE[dR]LKP[Dap]-NH2; lactam 4-10, 5-8) [listing 1 of 2 here], the Ki in experiment [3] came out at 0.32 nM.

On to `CC(=O)N[C@H](Cc1ccc2ccccc2c1)C(=O)N[C@H](Cc1ccc(Cl)cc1)C(=O)N[C@H](Cc1c[nH]c2ccccc12)C(=O)N[C@H]1CC(=O)NC[C@@H](C(N)=O)NC(=O)[C@@H]2CCCN2C(=O)[C@@H]2CCCCNC(=O)CC[C@H](NC1=O)C(=O)N[C@H](CCCN=C(N)N)C(=O)N[C@@H](CC(C)C)C(=O)N2` (Ac-[d2Nal][dPhe(4-Cl)][dW]DE[dR]LKP[Dap]-NH2; lactam 4-10, 5-8) [listing 2 of 2 here], for which, in the experiment listed under Rattus norvegicus [5], the No. of rats stood at 3.

In the experiment listed under Rattus norvegicus [6], `CC(C)C[C@H]1C(=O)N[C@@H](CCCN=C(N)N)C(=O)N2CCC[C@H]2C(=O)NCCC(=O)N2CC=C[C@H]2C(=O)N[C@H](Cc2ccc(Cl)cc2)C(=O)N[C@H](Cc2c[nH]c3ccccc23)C(=O)N[C@@H](CO)C(=O)N[C@@H](Cc2ccc(O)cc2)C(=O)N[C@H](Cc2c[nH]c3ccccc23)C(=O)N1C` (cyclo([NMeL]RP[βAla][ΔPro][dPhe(4-Cl)][dW]SY[dW])) came in with a No. of rats of 5.

Source of the values: ChEMBL document CHEMBL1132960, “Consensus bioactive conformation of cyclic GnRH antagonists defined by NMR and molecular modeling” (J Med Chem, 2000).
